Like-named read-outs stand apart in the source and are kept apart here.
What was measured:
[1] = system: Key Broadleaf Weed and Crop Species; experiment: Post-emergent Test II herbicidal activity (Table 5); type: in vivo; conditions: post-emergence, 336 h, post-emergent, 14 days after application; for pest or weed control at 70 g/ha: 70 g ai/ha; for pest or weed control at 140 g/ha: 140 g ai/ha
How it was run: (§1)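 Greenhouse post-emergent assay: seedlings (first/second true leaf) in Metro-Mix 360 were sprayed at 187 L/ha at a top rate plus twofold dilutions down to 1/16×; solvent-blank controls were included. Percent visual injury was read at 14 d.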

[2] = system: Key Grass and Sedge Weeds as well as Grass Crops; experiment: Post-emergent Test II herbicidal activity (Table 6); type: in vivo; conditions: post-emergence, 336 h; for pest or weed control at 70 g/ha: application rate 70 g ai/ha; for pest or weed control at 140 g/ha: application rate 140 g ai/ha
How it was run: as §1

[3] = ABUTH: velvetleaf (Abutilon theophrasti), read-out: Visual Growth Reduction (%) 14 Days After Application ABUTH
[4] = AMARE: redroot pigweed (Amaranthus retroflexus), read-out: Visual Growth Reduction (%) 14 Days After Application AMARE
[5] = BRSNN: oilseed-rape, canola (Brassica napus), read-out: Visual Growth Reduction (%) 14 Days After Application BRSNN
[6] = CHEAL: lambsquarters (Chenopodium album), read-out: Visual Growth Reduction (%) 14 Days After Application CHEAL
[7] = EPHHL: wild poinsettia (Euphorbia heterophylla), read-out: Visual Growth Reduction (%) 14 Days After Application EPHHL
[8] = HELAN: sunflower (Helianthus annuus), read-out: Visual Growth Reduction (%) 14 Days After Application HELAN
[9] = VIOTR: wild pansy (Viola tricolor), read-out: Visual Growth Reduction (%) 14 Days After Application VIOTR
[10] = Triticum aestivum, TRZSS (wheat), read-out: Visual Growth Reduction (%) 14 Days After Application, TRZSS
[11] = CYPES: yellow nutsedge (Cyperus esculentus), read-out: Visual Growth Reduction (%) 14 Days After Application, CYPES
[12] = DIGSA: crabgrass (Digitaria sanguinalis), read-out: Visual Growth Reduction (%) 14 Days After Application, DIGSA
[13] = ECHCG: barnyardgrass (Echinochloa crus-galli), read-out: Visual Growth Reduction (%) 14 Days After Application, ECHCG
[14] = ORYSA: rice (Oryza sativa), read-out: Visual Growth Reduction (%) 14 Days After Application, ORYSA
[15] = SETFA: giant foxtail (Setaria faberi), read-out: Visual Growth Reduction (%) 14 Days After Application, SETFA
[16] = SORVU: grain sorghum (Sorghum vulgare), read-out: Visual Growth Reduction (%) 14 Days After Application, SORVU
[17] = ZEAMX: maize, corn (Zea mays), read-out: Visual Growth Reduction (%) 14 Days After Application, ZEAMX

Q: Which results are given for `C#Cc1ccc(-c2nc(C(=O)O)c(C=C)c(N)c2F)cc1` [Compound 36]?
A: pest or weed control at 70 g/ha [1, 3]: 0 to 29%; pest or weed control at 140 g/ha [1, 3]: 0 to 29%; pest or weed control at 70 g/ha [1, 4]: 95 to 100%; pest or weed control at 140 g/ha [1, 4]: 95 to 100%; pest or weed control at 70 g/ha [1, 5]: 0 to 29%; pest or weed control at 140 g/ha [1, 5]: 0 to 29%; pest or weed control at 70 g/ha [1, 6]: 85 to 94%; pest or weed control at 140 g/ha [1, 6]: 85 to 94%; pest or weed control at 70 g/ha [1, 7]: 95 to 100%; pest or weed control at 140 g/ha [1, 7]: 95 to 100%; pest or weed control at 70 g/ha [1, 8]: 85 to 94%; pest or weed control at 140 g/ha [1, 8]: 85 to 94%; pest or weed control at 70 g/ha [1, 9]: 0 to 29%; pest or weed control at 140 g/ha [1, 9]: 0 to 29%; pest or weed control at 70 g/ha [2, 10]: 45 to 59%; pest or weed control at 140 g/ha [2, 10]: 45 to 59%; pest or weed control at 70 g/ha [2, 11]: 0 to 29%; pest or weed control at 140 g/ha [2, 11]: 95 to 100%; pest or weed control at 70 g/ha [2, 12]: 0 to 29%; pest or weed control at 140 g/ha [2, 12]: 0 to 29%; pest or weed control at 70 g/ha [2, 13]: 60 to 74%; pest or weed control at 140 g/ha [2, 13]: 75 to 84%; pest or weed control at 70 g/ha [2, 14]: 0 to 29%; pest or weed control at 140 g/ha [2, 14]: 0 to 29%; pest or weed control at 70 g/ha [2, 15]: 0 to 29%; pest or weed control at 140 g/ha [2, 15]: 0 to 29%; pest or weed control at 70 g/ha [2, 16]: 60 to 74%; pest or weed control at 140 g/ha [2, 16]: 60 to 74%; pest or weed control at 70 g/ha [2, 17]: 30 to 44%; pest or weed control at 140 g/ha [2, 17]: 45 to 59%

Source: patent publication US9113629B2, “4-amino-6-(4-substituted-phenyl)-picolinates and 6-amino-2-(4-substituted-phenyl)-pyrimidine-4-carboxylates and their use as herbicides” (DOW AGROSCIENCES LLC, priority 2013, dated 2015)
